Experimental findings from patent US8357786B2, “Method for preparing Gynostemma pentaphyllum extract with increasing damulin A and damulin B contents, and pharmaceutical compositions of the same for treating metabolic disease” (TG Biotech Co., Ltd., priority 2009, dated 2013) are described below.

Holding throughout (assay type): cell-based
In one test the test system is AMPK. The test is described as follows: Phosphorylation of AMPK (Thr-172 of α subunit) in L6 myotube cells, western blot. To be noted: 2 hours, damulin A 10, 30, 60 μg/ml, damulin B 1, 5, 10 μg/ml, compared to control group.
The test system of test [1] is L6 myotube cells. Description: β-oxidation of fatty acid in L6 myotube cells. How it is done: When AMPK is activated, the activity of ACC is reduced, thereby reducing the concentration of malonyl-CoA within mitochondria. This accelerates the transport of fatty acid into mitochondria, and thereby increases β-oxidation. Thus, due to the reduction of body fat, an obesity inhibiting effect can be achieved. Cultured L6 myotube cells were treated with purely separated damulin A and damulin B, and the improving effect on β-oxidation of fatty acid was analyzed by the method of Hwang, et al. (Biochem. Biophys. Res. Commun. 377, 1253-1258).
As a result, it was observed that damulin A (30 μg/ml) and damulin B (5 μg/ml) increased β-oxidation of fatty acid 1.8 times and 2.6 times (see FIG. 5).

The test system of test [2] is L6 myotube cells. Description: 2-DG (glucose) absorption into L6 myotube cells. An excerpt: It is well known that the activation of AMPK also increases the glucose absorption into cells, and thus causes a blood glucose level reducing effect (Hardie, et al., FEBS Lett. 546, 113-120, 2003; Carling, et al., Trends. Biochem. Sci. 29, 18-24, 2004; Kahn, et al., Cell Metab. 1, 15-25, 2005; Cool, et al., Cell Metab. 3. 403-416, 2006; Lee et al., Diabetes, 55, 2256-2264, 2006; Hwang et al., Biochem. Biophys. Res. Commun. 371, 289-293, 2008). Accordingly, the treatment of damulin A and damulin B on L6 myotube cells was carried out to determine the influence on the glucose absorption into cells.
To cultured L6 myotube cells, high concentration glucose was added together with 2-DG (2-deoxy-[3H]D-glucose) (a radioactive isotope that is not decomposed within a cell) according to the method of Hwang et al. (Biochem. Biophys. Res. Commun. 377, 1253-1258), and then the accelerated extent of 2-DG absorption into cells by damulin A (30 μg/ml) and damulin B (5 μg/ml) was analyzed. As a result, in the damulin A-treated cells, the capability of absorbing glucose was increased by 42% on the average, and in the damulin B-treated cells, the capability was increased by about 79% (see FIG. 6). Therefore, based on the result, both damulin A and damulin B are determined to have a high anti-diabetes effect by decreasing blood glucose level.

Test [3] deals with ACC (acetyl-CoA carboxylase). Description: Phosphorylation of ACC (Ser-79) in L6 myotube cells, western blot. To be noted: 2 hours, damulin A 10, 30, 60 μg/ml, damulin B 1, 5, 10 μg/ml, compared to control group. An excerpt: ACC is an important enzyme for regulating lipid metabolism in liver and muscle tissues. This enzyme carboxylates acetyl-CoA to produce malonyl-CoA. Malonyl-CoA is the most important factor for regulating β-oxidation of fatty acid within mitochondria. When the concentration of malonyl-CoA increases, the activity of CPT-1 (carnitine palmitoyl-CoA transferase) in mitochondrial membrane is reduced, thereby inhibiting β-oxidation of fatty acid, and on the other hand, when the concentration of malonyl-CoA decreases, β-oxidation is increased, accelerating the reduction of body fat. ACC is a subordinate target protein in AMPK activity, and is phosphorylated by the activation of AMPK. […]
Accordingly, differentiated L6 myotube cells were treated with individually separated damulin A with different concentrations (10, 30, and 60 μg/ml), and treated with individually separated damulin B with different concentrations (1, 5, and 10 μg/ml), for 2 hours. The increased extent of the phosphorylation of a threonine residue at (Thr)-172 of AMPK α subunit, and a serine residue at Ser-79 of an ACC enzyme protein was analyzed through western blot analysis according to the method of Hwang, et al. (Biochem. Biophys. Res. Commun. 371, 289-293, 2008). […] Also, both damulin A and damulin B were determined to be active ingredients which phosphorylate and activate AMPK, and phosphorylate and inactivate ACC. […]

Description for AMPK: The activity of AMPK may be determined by determining whether or not the phosphorylation of a threonine amino acid residue at position 172 was increased.

As to `C=C(CCC=C(C)C)[C@H]1CC[C@]2(C)C1[C@H](O)CC1[C@@]3(C)C[C@@H](O)[C@H](OC4OC(CO)[C@@H](O)[C@H](O)[C@@H]4OC4OC(CO)[C@@H](O)[C@H](O)[C@@H]4O)C(C)(C)C3CC[C@]12C` (stereo partly drawn) [damulin B, 2α,3β,12β-trihydroxydammara-20,24-diene-3-O-[β-D-glucopyranosyl-(1→)-β-D-glucopyranoside]], the “phosphorylation of threonine residue (Thr)-172 of AMPK α subunit” value in the test with AMPK is “concentration-dependently increased the phosphorylation”. Also, the “increase of β-oxidation of fatty acid” value in the test on L6 myotube cells [1] (5 μg/ml) was determined as 2.6 times. Moreover, in the test on L6 myotube cells [2] (5 μg/ml), the “increase of capability of absorbing glucose (2-DG absorption into cells)” value is given as “about 79%”. For the same compound, in test [3], the “phosphorylation of serine residue Ser-79 of ACC” value is listed as “concentration-dependently increased the phosphorylation”.

Turning to `CC(C)=CC/C=C(/C)[C@H]1CC[C@]2(C)C1[C@H](O)CC1[C@@]3(C)C[C@@H](O)[C@H](OC4OC(CO)[C@@H](O)[C@H](O)[C@@H]4OC4OC(CO)[C@@H](O)[C@H](O)[C@@H]4O)C(C)(C)C3CC[C@]12C` (stereo partly drawn) [damulin A, 2α,3β,12β-trihydroxydammar-20(22)-E,24-diene-3-O-[β-D-glucopyranosyl-(1→)-β-D-glucopyranoside]], the “phosphorylation of threonine residue (Thr)-172 of AMPK α subunit” value with AMPK is “concentration-dependently increased the phosphorylation”. Also, the “increase of β-oxidation of fatty acid” value with L6 myotube cells [1] (30 μg/ml) amounted to 1.8 times. In the test on L6 myotube cells [2] (30 μg/ml), the “increase of capability of absorbing glucose (2-DG absorption into cells)” value is reported as 42%. Besides, the “phosphorylation of serine residue Ser-79 of ACC” value in test [3] was “concentration-dependently increased the phosphorylation”.
